Patent publication US20250051362A1, “SUBSTITUTED FUSED HETEROCYCLIC COMPOUND, AND PREPARATION METHOD THEREFOR AND USE THEREOF” (Shanghai Annova Biotechnology Co., Ltd., priority 2021, published 2025)

Assays:
[1] = system: human colon cancer LoVo cells; assay: Cell proliferation inhibition assay (CellTiter-Glo); type: cell-based; conditions: LoVo cells, 96 hours incubation; for Emax: read-out: Max Inhibition
Excerpt: Experimental method: A CellTiter-Glo cell viability assay kit was used to test the inhibitory effect of the compounds on the in vitro proliferation of human colon cancer LoVo cells.
Experimental materials: LoVo cells (ATCC, Cat. No. CCL-29); F-12K medium (Invitrogen, Cat. No. 21127-022); fetal bovine serum (Biological Industries, Cat. No. 04-002-1A); GlutaMAX (Gibco, Cat. No. 35050-061); 0.25% trypsin-EDTA (Invitrogen, Cat. No. 25200-072); CellTiter-Glo kit (Promega, Cat. No. G7558).
Experimental procedure: (1) F-12K medium, fetal bovine serum and GlutaMAX were formulated into a complete medium for culturing LoVo cells; (2) well-grown LoVo cells were taken, digested with trypsin and transferred to a centrifuge tube, and centrifuged; the supernatant was discarded, and cells were resuspended by adding a fresh medium and counted by a Vi-CELL XR cell counter; the density of the cell suspension was adjusted to 25,000 to 30,000 cells/mL, and the cell suspension was added at 100 μL/well in a 96-well cell culture plate, while a blank control group was set up with no cells added, and the cell culture plate was incubated in a carbon dioxide incubator overnight; (3) a DMSO solution of the compound to be tested was dispensed into the above 96-well cell culture plate using an HP D300 ultra-micro sampler, with 0.5 μL of the solution per well and 10 concentrations for each compound (3× dilution), while a DMSO control group with no compound added was set up, and the plate was continued to be incubated in a carbon dioxide incubator for 96 hours; (4) the cell culture plate was taken out and equilibrated to room temperature, with 100 μL of a CellTiter-Glo reagent added to each well, and then the plate was kept away from light, shaken for 10 minutes and then incubated for 10 minutes; (5) the cell culture plate was put into EnSpire for plate reading, and the luminescence value RLU was recorded.
Data processing: (1) The inhibition rate was calculated from the luminescence values: “RLUDMSO” is the luminescence value of the DMSO control group without compound, “RLUblank” is the luminescence value of the blank control group without cells, and “RLUcompound” is the luminescence value of the compound test group, and the inhibition rate=[1−(RLUcompound−RLUblank)/(RLUDMSO−RLUblank)]×100%; (2) with curve fitting using the Excel add-on XLFit, the IC50 value was calculated.

ATR kinase = ATR kinase (Homo sapiens (Human), UniProt Q13535); assay: In vitro ATR kinase inhibition assay (Mobility Shift Assay, Caliper EZ Reader); type: biochemical; conditions: ATP concentration of Km; 4 h at 28° C.
Protocol: Experimental method: The inhibitory activity of the compounds on ATR kinase in vitro was determined by Mobility Shift Assay at an ATP concentration of Km using Caliper EZ Reader as a mobility shift assaying technology based on microfluidic chip technology.
Experimental procedure: (1) The compounds to be tested were dissolved in DMSO and serially diluted 4× for a total of 10 concentrations; (2) 0.06 μL of the compounds at different concentrations were pipetted into a 384-well plate using an Echo pipetting system; (3) a 2× kinase solution with a concentration of 10 nM ATR kinase was prepared from the ATR kinase and the 1× kinase buffer; and a 2× substrate solution with a concentration of 6 μM 5-FAM-AK-17 and 4 μM ATP was prepared from 5-FAM-AK-17, ATP and the 1× kinase buffer; (4) 10 μL of the 2× kinase solution was added into the 384-well plate and incubated for 10 min at room temperature; 10 μL of the 2× substrate solution was then added and incubated for 4 h at 28° C.; (5) 30 μL of the termination buffer was added to terminate the reaction, and then the 384-well plate was put into the Caliper EZ Reader to read the conversion rate data.

ATR kinase, sequence (Q13535 whole entry): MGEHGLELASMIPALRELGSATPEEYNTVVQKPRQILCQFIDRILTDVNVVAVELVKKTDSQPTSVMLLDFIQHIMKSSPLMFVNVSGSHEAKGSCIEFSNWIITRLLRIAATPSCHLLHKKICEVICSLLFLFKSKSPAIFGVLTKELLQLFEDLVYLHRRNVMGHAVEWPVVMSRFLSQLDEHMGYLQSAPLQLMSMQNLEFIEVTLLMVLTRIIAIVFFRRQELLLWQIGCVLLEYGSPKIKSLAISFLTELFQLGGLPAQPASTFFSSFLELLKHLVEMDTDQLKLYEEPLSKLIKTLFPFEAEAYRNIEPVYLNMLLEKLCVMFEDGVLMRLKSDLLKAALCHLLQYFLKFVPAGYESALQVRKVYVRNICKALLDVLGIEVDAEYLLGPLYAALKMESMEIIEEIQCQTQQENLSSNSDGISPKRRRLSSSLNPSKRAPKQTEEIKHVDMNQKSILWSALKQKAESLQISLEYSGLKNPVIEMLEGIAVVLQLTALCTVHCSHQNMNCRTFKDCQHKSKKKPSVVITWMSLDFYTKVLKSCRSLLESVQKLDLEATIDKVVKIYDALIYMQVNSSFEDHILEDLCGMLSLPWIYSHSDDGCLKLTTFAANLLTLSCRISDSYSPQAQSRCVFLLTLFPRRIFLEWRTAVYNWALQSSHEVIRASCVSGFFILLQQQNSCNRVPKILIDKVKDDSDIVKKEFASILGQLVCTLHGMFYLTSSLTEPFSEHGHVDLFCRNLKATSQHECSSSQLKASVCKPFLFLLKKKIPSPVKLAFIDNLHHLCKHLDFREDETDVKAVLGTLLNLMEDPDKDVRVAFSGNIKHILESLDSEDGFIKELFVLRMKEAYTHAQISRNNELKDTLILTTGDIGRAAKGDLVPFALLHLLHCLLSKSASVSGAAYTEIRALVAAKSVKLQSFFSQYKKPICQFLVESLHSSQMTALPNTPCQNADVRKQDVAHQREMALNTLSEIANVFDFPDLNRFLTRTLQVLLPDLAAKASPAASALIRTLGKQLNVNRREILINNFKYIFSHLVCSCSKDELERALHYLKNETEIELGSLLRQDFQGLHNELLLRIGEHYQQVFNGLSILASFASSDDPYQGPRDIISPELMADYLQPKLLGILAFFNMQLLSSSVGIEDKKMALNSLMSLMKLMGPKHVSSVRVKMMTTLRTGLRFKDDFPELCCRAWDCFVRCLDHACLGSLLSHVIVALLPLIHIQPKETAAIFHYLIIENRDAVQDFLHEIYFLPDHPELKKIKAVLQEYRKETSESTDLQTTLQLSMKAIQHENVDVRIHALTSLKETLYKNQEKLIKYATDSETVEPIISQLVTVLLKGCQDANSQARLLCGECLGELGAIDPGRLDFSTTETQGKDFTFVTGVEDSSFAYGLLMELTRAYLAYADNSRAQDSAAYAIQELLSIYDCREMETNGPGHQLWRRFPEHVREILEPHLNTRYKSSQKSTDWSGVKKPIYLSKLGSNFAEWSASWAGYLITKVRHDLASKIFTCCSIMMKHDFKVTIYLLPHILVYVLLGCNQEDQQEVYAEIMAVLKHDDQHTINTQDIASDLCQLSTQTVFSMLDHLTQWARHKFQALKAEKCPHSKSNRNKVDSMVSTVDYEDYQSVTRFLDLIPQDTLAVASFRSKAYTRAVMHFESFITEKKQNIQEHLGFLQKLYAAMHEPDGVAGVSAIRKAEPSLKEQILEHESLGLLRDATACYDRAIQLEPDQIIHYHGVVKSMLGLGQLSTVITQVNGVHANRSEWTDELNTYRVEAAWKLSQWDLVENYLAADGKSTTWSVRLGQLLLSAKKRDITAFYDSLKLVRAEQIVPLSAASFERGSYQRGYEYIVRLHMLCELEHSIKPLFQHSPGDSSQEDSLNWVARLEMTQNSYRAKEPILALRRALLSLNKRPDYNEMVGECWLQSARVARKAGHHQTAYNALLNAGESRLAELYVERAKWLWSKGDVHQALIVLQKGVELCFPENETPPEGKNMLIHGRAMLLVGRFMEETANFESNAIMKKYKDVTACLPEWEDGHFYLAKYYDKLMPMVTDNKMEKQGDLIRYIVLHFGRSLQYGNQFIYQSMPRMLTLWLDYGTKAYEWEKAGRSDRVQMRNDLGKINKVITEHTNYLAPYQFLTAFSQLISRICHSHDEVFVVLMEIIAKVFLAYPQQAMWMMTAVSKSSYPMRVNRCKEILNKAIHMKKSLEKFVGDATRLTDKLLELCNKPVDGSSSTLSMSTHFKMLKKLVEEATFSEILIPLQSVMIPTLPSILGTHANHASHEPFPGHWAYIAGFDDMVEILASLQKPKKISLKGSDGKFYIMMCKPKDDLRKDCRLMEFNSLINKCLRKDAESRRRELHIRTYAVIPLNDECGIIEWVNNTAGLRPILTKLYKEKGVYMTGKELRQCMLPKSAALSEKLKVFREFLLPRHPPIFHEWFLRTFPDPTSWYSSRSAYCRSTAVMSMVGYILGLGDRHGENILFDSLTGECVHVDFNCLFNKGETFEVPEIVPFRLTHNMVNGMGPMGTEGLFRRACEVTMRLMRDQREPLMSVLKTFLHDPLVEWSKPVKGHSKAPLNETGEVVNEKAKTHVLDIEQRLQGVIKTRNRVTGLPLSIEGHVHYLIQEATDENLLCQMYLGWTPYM
ATR kinase, sequence (Q8WXE1 whole entry partner): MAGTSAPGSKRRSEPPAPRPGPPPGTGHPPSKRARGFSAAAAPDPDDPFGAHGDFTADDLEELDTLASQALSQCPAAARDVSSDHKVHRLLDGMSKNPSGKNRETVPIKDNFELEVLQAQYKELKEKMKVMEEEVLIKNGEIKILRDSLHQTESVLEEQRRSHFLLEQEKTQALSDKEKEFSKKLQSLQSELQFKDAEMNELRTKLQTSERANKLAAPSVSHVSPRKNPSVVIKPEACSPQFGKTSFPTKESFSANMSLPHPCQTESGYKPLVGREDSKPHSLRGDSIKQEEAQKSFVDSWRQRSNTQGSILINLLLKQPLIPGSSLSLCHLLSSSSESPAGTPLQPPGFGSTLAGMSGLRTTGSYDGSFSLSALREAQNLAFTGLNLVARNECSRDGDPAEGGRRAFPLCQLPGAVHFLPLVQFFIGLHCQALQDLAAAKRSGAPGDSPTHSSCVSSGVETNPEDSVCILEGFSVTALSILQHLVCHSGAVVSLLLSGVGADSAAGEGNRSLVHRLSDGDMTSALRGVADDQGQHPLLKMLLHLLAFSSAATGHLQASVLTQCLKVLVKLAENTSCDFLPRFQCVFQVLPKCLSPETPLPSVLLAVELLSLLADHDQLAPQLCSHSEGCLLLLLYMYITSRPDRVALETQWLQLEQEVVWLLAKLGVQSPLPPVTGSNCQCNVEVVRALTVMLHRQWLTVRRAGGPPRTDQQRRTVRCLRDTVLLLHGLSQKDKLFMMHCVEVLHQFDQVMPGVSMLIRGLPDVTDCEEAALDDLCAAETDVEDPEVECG

| Structure (SMILES) | Emax ([1]; Homo sapiens) [%] | IC50 (ATR kinase) [nM] | IC50 ([1]; Homo sapiens) [nM] | IC50 [1] [nM] | Max Inhibition [1] [%] |
| --- | --- | --- | --- | --- | --- |
| C[C@@H]1COCCN1c1nc(-c2ccnc3[nH]ccc23)nc2c1ncn2S(C)(=O)=O [Compound 22, (R)-3-methyl-4-(9-(methylsulfonyl)-2-(1H-pyrrolo[2,3-b]pyridin-4-yl)-9H-purin-6-yl)morpholine] | 93 | 10 |  |  |  |
| C[C@@H]1COCCN1c1nc(-c2ccnc3[nH]ccc23)nc2c1cnn2S(C)(=O)=O [Compound 23, (R)-3-methyl-4-(1-(methylsulfonyl)-6-(1H-pyrrolo[2,3-b]pyridin-4-yl)-1H-pyrazolo[3,4-d]pyrimidin-4-yl)morpholine] | 92 | 15 | 740 |  |  |
| C[C@@H]1COCCN1c1cc(-c2ccnc3[nH]ccc23)nc2c1ncn2S(C)(=O)=O [Compound 24, (R)-3-methyl-4-(3-(methylsulfonyl)-5-(1H-pyrrolo[2,3-b]pyridin-4-yl)-3H-imidazo[4,5-b]pyridin-7-yl)morpholine] | 92 | 15 |  |  |  |
| C[C@@H]1COCCN1c1nc(-c2cncc3[nH]ccc23)cc2c1ncn2S(C)(=O)=O [Compound 25, (R)-3-methyl-4-(1-(methylsulfonyl)-6-(1H-pyrrolo[2,3-c]pyridin-4-yl)-1H-imidazo[4,5-c]pyridin-4-yl)morpholine] | 89 | 9.4 |  |  |  |
| C[C@@H]1COCCN1c1nc(-c2ccnc3[nH]ccc23)cc2c1ccn2S(C)(=O)=O [Compound 26, (R)-3-methyl-4-(1-(methylsulfonyl)-6-(1H-pyrrolo[2,3-b]pyridin-4-yl)-1H-pyrrolo[3,2-c]pyridin-4-yl)morpholine] | 92 | 8.6 |  |  |  |
| C[C@@H]1COCCN1c1nc(-c2nc3ccccc3[nH]2)nc2c1ccn2S(C)(=O)=O [Compound 27, (R)-4-(2-(1H-benzo[d]imidazol-2-yl)-7-(methylsulfonyl)-7H-pyrrolo[2,3-d]pyrimidin-4-yl)-3-methylmorpholine] | 94 | 1.6 |  |  |  |
| CNc1nc2ccccc2n1-c1nc(N2CCOC[C@H]2C)c2ccn(S(C)(=O)=O)c2n1 [Compound 28, (R)-N-methyl-1-(4-(3-methylmorpholinyl)-7-(methylsulfonyl)-7H-pyrrolo[2,3-d]pyrimidin-2-yl)-1H-benzo[d]imidazol-2-amine] |  | 4.1 |  | 100 | 92 |
| Cc1cc(-c2nc(N3CCOC[C@H]3C)c3ccn(S(C)(=O)=O)c3n2)c2cc[nH]c2c1 [Compound 29, (R)-3-methyl-4-(2-(6-methyl-1H-indol-4-yl)-7-(methylsulfonyl)-7H-pyrrolo[2,3-d]pyrimidin-4-yl)morpholine] | 94 | 2.3 |  |  |  |
| C[C@@H]1COCCN1c1nc(-c2cc(C#N)cc3[nH]ccc23)nc2c1ccn2S(C)(=O)=O [Compound 30, (R)-4-(4-(3-methylmorpholinyl)-7-(methylsulfonyl)-7H-pyrrolo[2,3-d]pyrimidin-2-yl)-1H-indol-6-carbonitrile] |  | 9.4 |  | 1060 | 93 |
| C[C@@H]1COCCN1c1nc(-c2cc(Cl)cc3[nH]ccc23)nc2c1ccn2S(C)(=O)=O [Compound 31, (R)-4-(2-(6-chloro-1H-indol-4-yl)-7-(methylsulfonyl)-7H-pyrrolo[2,3-d]pyrimidin-4-yl)-3-methylmorpholine] | 93 | 4.4 |  |  |  |
| COc1cc(-c2nc(N3CCOC[C@H]3C)c3ccn(S(C)(=O)=O)c3n2)c2cc[nH]c2c1 [Compound 32, (R)-4-(2-(6-methoxy-1H-indol-4-yl)-7-(methylsulfonyl)-7H-pyrrolo[2,3-d]pyrimidin-4-yl)-3-methylmorpholine] | 95 | 5.3 |  |  |  |
| CCS(=O)(=O)n1ccc2c(N3CCOC[C@H]3C)nc(-c3ccnc4[nH]ccc34)nc21 [Compound 33, (R)-4-(7-(ethylsulfonyl)-2-(1H-pyrrolo[2,3-b]pyridin-4-yl)-7H-pyrrolo[2,3-d]pyrimidin-4-yl)-3-methylmorpholine] | 92 | 5 |  |  |  |
| C[C@@H]1COCCN1c1nc(-c2ccnc3[nH]ccc23)nc2c1ccn2S(=O)(=O)N(C)C [Compound 34, (R)-N,N-dimethyl-4-(3-methylmorpholinyl)-2-(1H-pyrrolo[2,3-b]pyridin-4-yl)-7H-pyrrolo[2,3-d]pyrimidine-7-sulfamide] |  | 7.1 |  | 290 | 93 |
